This note sets out measurements from US20220411372A1, “SMALL-MOLECULE INHIBITORS FOR THE B-CATENIN/B-CELL LYMPHOMA 9 PROTEIN-PROTEIN INTERACTION” (H. Lee Moffitt Cancer Center and Research Institute, Inc., priority 2019, published 2022).

This assay concerns the target T1, β-catenin/BCL9 PPI (Homo sapiens, UniProt P35222).
T1 construct: Full-length β-catenin (residues 1-781) were cloned into a pET-28b vector; made in house; host or cells: E. coli BL21 DE3 (β-catenin); BCL9 peptide synthesized by InnoPep Inc
T1 sequence (P35222 1-781): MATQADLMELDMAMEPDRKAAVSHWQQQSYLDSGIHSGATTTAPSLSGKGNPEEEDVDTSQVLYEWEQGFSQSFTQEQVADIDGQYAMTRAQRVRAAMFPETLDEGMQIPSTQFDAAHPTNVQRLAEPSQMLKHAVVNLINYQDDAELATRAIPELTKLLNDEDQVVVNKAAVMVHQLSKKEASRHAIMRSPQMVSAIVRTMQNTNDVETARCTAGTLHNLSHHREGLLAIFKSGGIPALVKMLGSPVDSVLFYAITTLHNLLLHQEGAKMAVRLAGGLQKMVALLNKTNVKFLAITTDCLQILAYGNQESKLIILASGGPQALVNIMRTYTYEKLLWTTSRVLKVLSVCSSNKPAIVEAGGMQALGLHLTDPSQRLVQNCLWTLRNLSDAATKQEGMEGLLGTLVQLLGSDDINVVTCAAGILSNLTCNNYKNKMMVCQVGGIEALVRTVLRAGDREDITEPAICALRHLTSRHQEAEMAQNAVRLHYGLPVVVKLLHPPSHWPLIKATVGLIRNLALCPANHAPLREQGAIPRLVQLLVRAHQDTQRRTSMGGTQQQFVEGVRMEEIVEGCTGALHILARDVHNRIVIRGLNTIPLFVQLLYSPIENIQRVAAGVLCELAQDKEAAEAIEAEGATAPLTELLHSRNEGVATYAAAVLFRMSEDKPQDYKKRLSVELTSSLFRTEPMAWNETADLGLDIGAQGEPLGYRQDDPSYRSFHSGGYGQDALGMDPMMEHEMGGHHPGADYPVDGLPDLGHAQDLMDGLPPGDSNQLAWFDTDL
The assay can be described thus: AlphaScreen competitive inhibition assay of the β-catenin/BCL9 PPI. Conditions: read-out: Ki. The format is binding. As for the experimental part:
AlphaScreen Assays of β-Catenin and BCL9 Interaction. Experiments were performed in white opaque 384-well plates from PerkinElmer (Waltham, Mass.), and the samples were read on a Synergy 2 plate reader (Biotek, Winooski, Vt.) with excitation at 680 nm and emission at 570 nm. The standard AlphaScreen protocol was used with a sensitivity setting of 200. All dilutions were made in 1× assay buffer containing 25 mM Hepes (pH 7.4), 100 mM NaCl, 0.01% Triton X-100 and 0.1% BSA to minimize nonspecific interactions.
For the β-catenin/BCL9 assay, 5 nM biotinylated BCL9 and 40 nM His6-tagged β-catenin were incubated in assay buffer at 4° C. for 30 min. For the β-catenin/E-cadherin assay, 10 nM biotinylated human E-cadherin, and 40 nM His6-tagged human β-catenin were added and incubated in assay buffer at 4° C. for 30 min. Different concentrations of the tested inhibitor were added and incubated in 20 μL assay buffer at 4° C. for another 1 h. All of the assay plates were covered and gently mixed on an orbital shaker. The donor and acceptor beads were then added to the plates to a final concentration of 10 μg/mL in […]. The mixture was incubated for 1 h at 4° C. before detection. The IC50 value was determined by nonlinear least-square analysis of GraphPad Prism 5.0. […] All of the experiments were performed in triplicate and carried out in the presence of 1% DMSO for small-molecule inhibitors. Each compound was assayed at least by two independent experiments. The results were expressed as mean±standard deviation. The inhibitor selectivity for β-catenin/BCL9 over β-catenin/E-canderin interactions was defined as the ratio of the respective Ki value of β-catenin/E-cadherin interactions over that of β-catenin/BCL9 interactions.
For orientation: In Alpha technology, singlet oxygen from a donor bead excites a nearby acceptor bead.

Structures are written as SMILES. Like-named read-outs stand apart in the source and are kept apart here.

For the compound `CC(C)c1ccc(CCNC(=O)[C@H]2CCCN(c3cccc(OC(C)(C)C(=O)O)c3)C2)cc1` [Compound 14, (S)-2-(3-(3-((4-isopropylphenethyl)carbamoyl)piperidin-1-yl)phenoxy)-2-methylpropanoic acid], under “Table 1, inhibitors 1-14”, the Ki is not above 90 µM.
As for `CC(C)c1ccc(COC(=O)[C@@H]2CCCN(c3cccc(OC(C)(C)C(=O)N4CCNCC4)c3)C2)cc1` [Compound 15, (R)-4-(2-(3-(3-(((4-isopropylbenzyl)oxy)carbonyl)piperidin-1-yl)phenoxy)-2-methylpropanoyl)piperazin-1-ium chloride], the Ki (Table 2, inhibitors 15-26) was not above 10 µM.
The same measure, in the same setting: next, `CC(C)c1ccc(COC(=O)[C@H]2CCCN(c3cccc(OC(C)(C)C(=O)N4CCNCC4)c3)C2)cc1` [Compound 16, (S)-4-(2-(3-(3-(((4-isopropylbenzyl)oxy)carbonyl)piperidin-1-yl)phenoxy)-2-methylpropanoyl)piperazin-1-ium chloride]: not above 10 µM.
`CC(C)c1ccc(CNC(=O)[C@@H]2CCCN(c3cccc(OC(C)(C)C(=O)N4CCNCC4)c3)C2)cc1` [Compound 17, (R)-4-(2-(3-(3-((4-isopropylbenzyl)carbamoyl)piperidin-1-yl)phenoxy)-2-methylpropanoyl)piperazin-1-ium chloride]: under “Table 2, inhibitors 15-26”, the Ki was not above 10 µM.
Still for that read-out and setting: next, `CC(C)c1ccc(CNC(=O)[C@H]2CCCN(c3cccc(OC(C)(C)C(=O)N4CCNCC4)c3)C2)cc1` [Compound 18, (S)-4-(2-(3-(3-((4-isopropylbenzyl)carbamoyl)piperidin-1-yl)phenoxy)-2-methylpropanoyl)piperazin-1-ium chloride]: not above 30 µM.
Turning to `CC(C)c1ccc(CN(C)C(=O)[C@@H]2CCCN(c3cccc(OC(C)(C)C(=O)N4CCNCC4)c3)C2)cc1` [Compound 19, (R)-4-(2-(3-(3-((4-isopropylbenzyl)(methyl)carbamoyl)piperidin-1-yl)phenoxy)-2-methylpropanoyl)piperazin-1-ium chloride], the Ki (Table 2, inhibitors 15-26) is not above 30 µM.
On the same count and under the same terms, with `CC(C)c1ccc(CN(C)C(=O)[C@H]2CCCN(c3cccc(OC(C)(C)C(=O)N4CCNCC4)c3)C2)cc1` [Compound 20, (S)-4-(2-(3-(3-((4-isopropylbenzyl)(methyl)carbamoyl)piperidin-1-yl)phenoxy)-2-methylpropanoyl)piperazin-1-ium chloride] the figure was not above 10 µM; with `CCN(Cc1ccc(C(C)C)cc1)C(=O)[C@@H]1CCCN(c2cccc(OC(C)(C)C(=O)N3CCNCC3)c2)C1` [Compound 21, (R)-4-(2-(3-(3-(ethyl(4-isopropylbenzyl)carbamoyl)piperidin-1-yl)phenoxy)-2-methylpropanoyl)piperazin-1-ium chloride], not above 30 µM.
The same measure, in the same setting: with `CCN(Cc1ccc(C(C)C)cc1)C(=O)[C@H]1CCCN(c2cccc(OC(C)(C)C(=O)N3CCNCC3)c2)C1` [Compound 22, (S)-4-(2-(3-(3-(ethyl(4-isopropylbenzyl)carbamoyl)piperidin-1-yl)phenoxy)-2-methylpropanoyl)piperazin-1-ium chloride] the figure was not above 30 µM.
The same measure, in the same setting: next, `CC(C)c1ccc(CN(C(=O)[C@@H]2CCCN(c3cccc(OC(C)(C)C(=O)N4CCNCC4)c3)C2)C(C)C)cc1` [Compound 23, (R)-4-(2-(3-(3-(isopropyl(4-isopropylbenzyl)carbamoyl)piperidin-1-yl)phenoxy)-2-methylpropanoyl)piperazin-1-ium chloride]: not above 10 µM; `CC(C)c1ccc(CN(C(=O)[C@H]2CCCN(c3cccc(OC(C)(C)C(=O)N4CCNCC4)c3)C2)C(C)C)cc1` [Compound 24, (S)-4-(2-(3-(3-(isopropyl(4-isopropylbenzyl)carbamoyl)piperidin-1-yl)phenoxy)-2-methylpropanoyl)piperazin-1-ium chloride]: not above 10 µM.
With `CC(C)c1ccc(CN(C(=O)[C@@H]2CCCN(c3cccc(OC(C)(C)C(=O)N4CCNCC4)c3)C2)C2CC2)cc1` [Compound 25, (R)-4-(2-(3-(3-(cyclopropyl(4-isopropylbenzyl)carbamoyl)piperidin-1-yl)phenoxy)-2-methylpropanoyl)piperazin-1-ium chloride], the Ki (Table 2, inhibitors 15-26) is not above 5 µM.
As to `CC(C)c1ccc(CN(C(=O)[C@H]2CCCN(c3cccc(OC(C)(C)C(=O)N4CCNCC4)c3)C2)C2CC2)cc1` [Compound 26, (S)-4-(2-(3-(3-(cyclopropyl(4-isopropylbenzyl)carbamoyl)piperidin-1-yl)phenoxy)-2-methylpropanoyl)piperazin-1-ium chloride], the Ki (Table 2, inhibitors 15-26) is not above 10 µM.
Regarding `CC(C)(Oc1cccc(N2CCC[C@@H](C(=O)N(Cc3ccc(C(C)(C)C)cc3)C3CC3)C2)c1)C(=O)N1CCNCC1` [Compound 28, (R)-4-(2-(3-(3-((4-(tert-butyl)benzyl)(cyclopropyl)carbamoyl)piperidin-1-yl)phenoxy)-2-methylpropanoyl)piperazin-1-ium chloride], the Ki (Table 3, inhibitors 27-43) is not above 30 µM.
The same measure, in the same setting: next, `CC(C)(Oc1cccc(N2CCC[C@@H](C(=O)N(Cc3ccc(C4CCCCC4)cc3)C3CC3)C2)c1)C(=O)N1CCNCC1` [Compound 29, (R)-4-(2-(3-(3-((4-cyclohexylbenzyl)(cyclopropyl)carbamoyl)piperidin-1-yl)phenoxy)-2-methylpropanoyl)piperazin-1-ium chloride]: not above 5 µM; `CC(C)(Oc1cccc(N2CCC[C@@H](C(=O)N(Cc3ccc(-c4ccccc4)cc3)C3CC3)C2)c1)C(=O)N1CCNCC1` [Compound 31, (R)-4-(2-(3-(3-(([1,1′-biphenyl]-4-ylmethyl)(cyclopropyl)carbamoyl)piperidin-1-yl)phenoxy)-2-methylpropanoyl)piperazin-1-ium chloride]: less than 5 µM; `CC(C)(Oc1cccc(N2CCC[C@@H](C(=O)N(Cc3ccc(-c4ccsc4)cc3)C3CC3)C2)c1)C(=O)N1CCNCC1` [Compound 32, (R)-4-(2-(3-(3-(cyclopropyl(4-(thiophen-3-yl)benzyl)carbamoyl)piperidin-1-yl)phenoxy)-2-methylpropanoyl)piperazin-1-ium chloride]: less than 5 µM.
For `CC(C)(Oc1cccc(N2CCC[C@@H](C(=O)N(Cc3ccc(-c4ccccn4)cc3)C3CC3)C2)c1)C(=O)N1CCNCC1` [Compound 33, (R)-4-(2-(3-(3-(cyclopropyl(4-(pyridin-2-yl)benzyl)carbamoyl)piperidin-1-yl)phenoxy)-2-methylpropanoyl)piperazin-1-ium chloride], where the note is “Table 3, inhibitors 27-43”, the Ki is less than 90 µM.
On the same count and under the same terms, with `CC(C)(Oc1cccc(N2CCC[C@@H](C(=O)N(Cc3ccc(-c4ccncc4)cc3)C3CC3)C2)c1)C(=O)N1CCNCC1` [Compound 35, (R)-4-(2-(3-(3-(cyclopropyl(4-(pyridin-4-yl)benzyl)carbamoyl)piperidin-1-yl)phenoxy)-2-methylpropanoyl)piperazin-1-ium chloride] the figure was less than 90 µM; with `Cn1cc(-c2ccc(CN(C(=O)[C@@H]3CCCN(c4cccc(OC(C)(C)C(=O)N5CCNCC5)c4)C3)C3CC3)cc2)cn1` [Compound 38, (R)-4-(2-(3-(3-(cyclopropyl(4-(1-methyl-11/-pyrazol-4-yl)benzyl)carbamoyl)piperidin-1-yl)phenoxy)-2-methylpropanoyl)piperazin-1-ium chloride], not above 90 µM.
The same measure, in the same setting: with `Cc1n[nH]cc1-c1ccc(CN(C(=O)[C@@H]2CCCN(c3cccc(OC(C)(C)C(=O)N4CCNCC4)c3)C2)C2CC2)cc1` [Compound 39, (R)-4-(2-(3-(3-(cyclopropyl(4-(3-methyl-1H-pyrazol-4-yl)benzyl)carbamoyl)piperidin-1-yl)phenoxy)-2-methylpropanoyl)piperazin-1-ium chloride] the figure was not above 50 µM.

As usually defined, the Ki is a measure of affinity in units of concentration, obtained from inhibition or displacement.
